This note sets out measurements from patent publication US20160222430A1, “D-ALA-D-ALA-BASED DIPEPTIDES AS TOOLS FOR IMAGING PEPTIDOGLYCAN BIOSYNTHESIS” (INDIANA UNIVERSITY RESEARCH AND TECHNOLOGY CORPORATION, priority 2013, published 2016).

Structures are written as SMILES. Where two headings read alike, the source gives them in different places. Where a SMILES comes first, the peptide text is derived from it. [ ]: non-standard residue; d: D form.

The test system of assay [1] is A. tumefaciens. Nature of the assay: Control experiment with fluorescent D-Ala and L-Ala in A. tumefaciens. In kind it is cell-based, Agrobacterium tumefaciens. Here is the method: Control experiments were carried out in A. tumefaciens, B. subtilis and E. coli with fluorescent D-Ala (D-HCC) and fluorescent L-Ala (L-HCC). […] This observation was true for all strains tested.

For assay [2], the system named is B. subtilis wt. It counts as cell-based, Bacillus subtilis. Details: Growth rescue (culture density), B. subtilis wt: key: +++++: highest culture density achieved within a set; ++++: intermediate values, relative fractions of the highest culture density within a set; +++: intermediate values, relative fractions of the highest culture density within a set; ++: intermediate values, relative fractions of the highest culture density within a set; +: intermediate values, relative fractions of the highest culture density within a set; −: no bacterial growth. On Growth (culture density), B. subtilis wt: key: +++++: highest culture density achieved within a set; ++++: intermediate values, relative fractions of the highest culture density within a set; +++: intermediate values, relative fractions of the highest culture density within a set; ++: intermediate values, relative fractions of the highest culture density within a set; +: intermediate values, relative fractions of the highest culture density within a set; −: no bacterial growth.
For assay [3], the system named is C. trachomatis serovar L2 strain 434/Bu. Nature of the assay: DCS Chlamydia trachomatis plaque assay in L2 mouse fibroblast monolayers. In kind it is cell-based. Particulars: DCS 294 μM.
Assay [4] shares this test system. Nature of the assay: Labeling of chlamydial PG in infected L2 cells. In kind it is cell-based, Chlamydia trachomatis. Particulars: grown for 18 h in the presence of antibiotic (DCS 294 μM or ampicillin 2.8 μM).
Assay [5] relates to E. coli wt. It counts as cell-based, Escherichia coli. On the set-up: Growth rescue (culture density), E. coli wt: key: +++++: highest culture density achieved within a set; ++++: intermediate values, relative fractions of the highest culture density within a set; +++: intermediate values, relative fractions of the highest culture density within a set; ++: intermediate values, relative fractions of the highest culture density within a set; +: intermediate values, relative fractions of the highest culture density within a set; −: no bacterial growth.
For assay [6], the system named is B. subtilis cells. In kind it is cell-based, Bacillus subtilis.
Assay [7] concerns E. coli ΔddlA ΔddlB. It counts as cell-based, Escherichia coli. Further: key: +++++: highest culture density achieved within a set; ++++: intermediate values, relative fractions of the highest culture density within a set; +++: intermediate values, relative fractions of the highest culture density within a set; ++: intermediate values, relative fractions of the highest culture density within a set; +: intermediate values, relative fractions of the highest culture density within a set; −: no bacterial growth.
Assay [8] deals with E. coli cells. Nature of the assay: PG labeling of E. coli with dipeptide probes, click chemistry and epifluorescence microscopy. In kind it is cell-based, Escherichia coli. Particulars: 0.5 mM, 45 min; clicked to Alexa Fluor 488 azide.
Assay [9] concerns E. coli. Nature of the assay: FDAA/CDAA labeling of E. coli, fluorescence microscopy. In kind it is cell-based, Escherichia coli. The conditions noted are these: 2%-8% of doubling time.
Wherever Growth (culture density), E. coli wt is given: key: +++++: highest culture density achieved within a set; ++++: intermediate values, relative fractions of the highest culture density within a set; +++: intermediate values, relative fractions of the highest culture density within a set; ++: intermediate values, relative fractions of the highest culture density within a set; +: intermediate values, relative fractions of the highest culture density within a set; −: no bacterial growth.

With `N[C@@H](CNC(=O)c1cc2ccc(O)cc2oc1=O)C(=O)O` [HALA], in assay [1], the “Incorporation into the cell wall” value is on record as “only D-HCC was incorporated into the cell wall”.

Turning to `N[C@@H]1CONC1=O` [DCS, D-cycloserine], the “Growth (culture density), B. subtilis wt” value in assay [2] is “−”. The Plaque formation result in [3] (no amino acid) is “−”. In addition, the “Morphology of chlamydial RBs grown with antibiotic” value in assay [4] is reported as “inclusions contained enlarged, aberrant RBs”. Moreover, the “Growth (culture density), E. coli wt” value in assay [5] is reported as “−”.

For `C[C@@H](N)C(=O)O` [D-Ala, D-alanine], the results for the Plaque formation entry in assay [3] (amino acid to DCS ratio 1:1) and in assay [3] (amino acid to DCS ratio 1:10) were “++++” and “+++”, respectively.

Turning to `C#CN[C@@H](C)C(=O)N[C@@H](C)C(=O)O` [ELA-LA, ethynyl-L-alanyl-L-alanine], the “PG labeling signal, L-enantiomer control” value in [6] and in assay [8] was “No labeling was observed” throughout. The “Growth rescue (culture density), E. coli Δddla, Δddlb” value was “−” in assay [7] (MM + 0.8 mM, initial inoculum OD600 = 0.025) and “+” in assay [7] (MM + DA-DA (25 μM) + 0.80 mM of the analog, initial inoculum OD600 = 0.0025).

For the molecule `CC1(C)S[C@@H]2[C@H](NC(=O)[C@H](N)c3ccccc3)C(=O)N2[C@H]1C(=O)O` [ampicillin], the “Morphology of chlamydial RBs grown with antibiotic” value in [4] was “inclusions contained enlarged, aberrant RBs”.

For the molecule `NC(CNC(=O)c1cc2ccc(O)cc2oc1=O)C(=O)O` (stereo not drawn) [HADA], in [1], the “Incorporation into the cell wall” value is given as “incorporated into the cell wall”. Besides, the “Localization of signal after short labeling times” value in assay [9] is “preferential localization of the signal at the septal plane of pre-divisional cells and in punctate patterns on the lateral walls of elongating cells”.

For the molecule `C[C@@H](N)C(=O)N[C@H](C)C(=O)O` [DA-DA, D-alanyl-D-alanine] (H-[dA]-[dA]-OH), in [2], the “Growth rescue (culture density), B. subtilis wt” value is “++++”. Also, the Plaque formation result in assay [3] (amino acid to DCS ratio 1:1) is “++”; in [3] (amino acid to DCS ratio 10:1), “+++”. Further, the “Growth rescue (culture density), E. coli Δddla, Δddlb” value is on record as “++” in [7] (MM (M9 + 0.2% glucose) + 25 μM, initial inoculum OD600 = 0.025); “+” in assay [7] (MM + 25 μM, initial inoculum OD600 = 0.0025); “+++++” in [7] (MM + 200 μM, initial inoculum OD600 = 0.025). Further, in assay [5], the “Growth rescue (culture density), E. coli wt” value is given as “++”.
